According to patent US20250059231A1, “Protease inhibitors” (priority 2021, published 2025):
Read-outs that look alike come from different tables or passages of the source. Where a SMILES comes first, the peptide text is derived from it. [ ]: non-standard residue; d: D form. The star is where a group is joined. Palmitoyl = CCCCCCCCCCCCCCCC(=O)*; hPhe = N[C@@H](CCc1ccccc1)C(=O)O; β3hK = NCCCC[C@H](N)CC(=O)O

Legend:
[1] = system: Dengue virus 2 (DENV2, ATCC VR-1584); assay: DENV2 infection in AG129 mice: viral load in plasma (plaque assay); format: in vivo; conditions: 100 mg/kg, SC
Protocol: (§1) The purpose of this study was to determine the efficacy of the compounds on Dengue virus 2 (DENV2, ATCC® VR-1584™) infection in AG129 mice.
(§2) Six groups of AG129 mice, 6-8 weeks old, with 9 mice per group were used to test compounds according to table 3.1.1. Animal room environment was monitored for temperature and relative humidity twice per day. The temperature range was 22° C.±3° C. and humidity range was 30-70%. The animals were provided with 12 hours light and 12 hours darkness. Feed and drinking water was provided ad libitum. Compounds 43 and 113 were tested.
(§3) Twenty-four hours post treatment (Day 0), animals were injected intraperitoneally (IP) with 0.2 ml of virus suspension (˜5×10^7/animal).
(§4) Administration of compounds and vehicle to animals started twenty four hours before infection (Day −1). Animals were treated daily (From Day-1 to day 4) as per the experimental design shown below in table 3.1.5. Animals were monitored for general clinical signs, morbidity and mortality. Body weights were measured daily.
Blood was collected on days-1, 0, 1, 2, 3, 4 to 5.
BHK-21 cells were cultured to approximately 80% confluency in 24-well plates (NUNC, NY, USA). Plasma samples were 10-fold serially diluted in RPMI 1640 (GIBCO). BHK-21 monolayers were infected with 100 μl of each virus dilution. After incubation at 37° C. and 5% CO2 atmosphere for one hour with rocking at 15 min intervals, the medium was decanted and 1 ml of 1% (w/v)carboxymethyl cellulose in RPMI supplemented with 2% FCS was added to each well. After four days incubation at 37° C. in 5% CO2, the cells were fixed with 4% paraformaldehyde and stained for 30 min with […] of 1% crystal violet dissolved in 37% formaldehyde. After thorough rinsing with water, plates were dried and the plaques were scored visually.
(§5) The Mean±SD Log10PFU/ml, relative Mean±SD spleen weight, Mean±SD biomarker concentrations were estimated in each group. Significant differences between group means and control were analyzed by one-way ANOVA, followed by a Dunnett's multiple comparison test, using GraphPad Prism 5 at 95% confidence levels. A p value of <0.05 was considered as significant.

[2] = system: Dengue virus 2 (DENV2, ATCC VR-1584); assay: DENV2 infection in AG129 mice: clinical signs, body and spleen weights; format: in vivo; conditions: 100 mg/kg, SC; n = 9
Protocol: as §1, §2
C6/36 (ATCC(CRL-1660) cell lines were grown in RPMI 1640 medium (Gibco/HiMedia) plus 5% fetal bovine serum at 28° C. Dengue virus type 2 (ATCC®VR-1584™) New Guinea C(NGC, DENV2) was passaged in BHK-21 cell cultures to make sufficient stocks for assay. Virus titer was determined by TCID50 method using BHK-21 cells.
as §3
The vehicle for tested compounds was 5% DMSO+95% (20%) hydroxypropylcyclodextrin. […] Formulations were prepared daily immediately before dosing.
as §4
Animals were sacrificed on day 5 post infection with Isoflurane followed by an overdose of CO2. Spleens were excised, measured and weighed.
as §5

[3] = biological target: T1, WNV protease (West Nile virus, UniProt P06935); assay: WNV protease assay (analogous procedure); format: biochemical; conditions: read-out: IC50 for WNNV
T1 construct: a trypsin-like serine protease domain in the N-terminal region of the flaviviral NS3 proteins
T1 sequence (P06935 1424-1463): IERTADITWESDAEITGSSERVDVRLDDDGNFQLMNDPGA
T1 sequence (P06935 1502-1679): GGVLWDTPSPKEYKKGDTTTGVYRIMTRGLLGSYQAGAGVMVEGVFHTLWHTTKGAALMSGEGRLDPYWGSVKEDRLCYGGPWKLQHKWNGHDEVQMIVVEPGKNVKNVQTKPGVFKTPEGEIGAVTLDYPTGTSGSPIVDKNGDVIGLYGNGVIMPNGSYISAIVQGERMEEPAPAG

[4] = biological target: human Thrombin (Homo sapiens, UniProt P00734); assay: Selectivity screening, human serine protease thrombin; format: biochemical; conditions: read-out: inhibition of human Thrombin
Protocol: (§6) By catalytic activity of the protease, the cleaved substrate results in increased fluorescence that can be monitored using a BMG Labtech Fluostar OPTIMA Microtiter fluorescence plate reader (excitation wavelength of 320 nm and a monitored emission wavelength of 405 nm). Dilutions were made starting from 10 mM stock solutions in DMSO and final concentrations were measured in triplicates. The inhibitors were preincubated for 15 min with DENV protease (100 nM) in the assay buffer (50 mM Tris-HCl pH 9.0, ethylene glycol (10% v/v), and 0.0016% Brij 58). The enzymatic reaction was initiated by the addition of the FRET substrate (final concentration 50 μM) to obtain a final assay volume of 100 μL per well. The enzymatic activity was monitored for 15 min and determined as a slope of relative fluorescence units per second (RFU/s) for each concentration. The mean of the triplicates were plotted against the corresponding concentration in CDDVault to determine the IC50-values. Analogous procedures were used to determine the inhibitory potency on WNV (Kühl et al., J. Med. Chem. 2020, 63 (15): 8179-8197) and ZIKA protease (Nitsche et al., ACS Med. Chem. Lett. 2019 Feb. 14; 10 (2): 168-174). For selectivity screening of active candidates, similar biochemical assays with human serine proteases trypsin (Weigel et al., J. Med. Chem. 2015, 58 (19), 7719-7733.) and/or thrombin (Nitsche et al., J. Med. Chem. 2013, 56 (21), 8389-8403) were used.

[5] = biological target: T1, WNV protease; assay: WNV protease assay (analogous procedure); format: biochemical; conditions: at 50 μM
Protocol: as §6

[6] = biological target: human Trypsin (Homo sapiens, UniProt P07477); assay: Selectivity screening, human serine protease trypsin; format: biochemical; conditions: read-out: inhibition of human Trypsin
Protocol: as §6

[7] = biological target: T2, ZIKA protease (Zika virus, UniProt Q32ZE1); assay: biochemical; conditions: for inhibition at 1 µM / inhibition at 50 µM: read-out: inhibition of ZIKV
T2 construct: a trypsin-like serine protease domain in the N-terminal region of the flaviviral NS3 proteins
T2 sequence (Q32ZE1 1499-1676): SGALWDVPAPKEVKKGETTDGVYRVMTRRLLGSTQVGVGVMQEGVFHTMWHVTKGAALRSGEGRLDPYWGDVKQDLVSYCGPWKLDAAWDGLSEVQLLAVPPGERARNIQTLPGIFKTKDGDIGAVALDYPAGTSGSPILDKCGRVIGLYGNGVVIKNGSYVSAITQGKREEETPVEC
T2 sequence (Q32ZE1 1421-1460): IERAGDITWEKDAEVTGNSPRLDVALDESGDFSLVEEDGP
Protocol: as §6

[8] = system: West Nile virus
[9] = biological target: T3, DENV protease (Dengue virus type 2, UniProt P29990); assay: biochemical; conditions: read-out: inhibition of DENV
T3 construct: The virus-encoded dengue protease comprises the amino-terminal 180 amino acids of NS3 (NS3pro) of the polyprotein
T3 sequence (P29990 1398-1437): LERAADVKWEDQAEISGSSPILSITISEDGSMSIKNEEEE
T3 sequence (P29990 1476-1653): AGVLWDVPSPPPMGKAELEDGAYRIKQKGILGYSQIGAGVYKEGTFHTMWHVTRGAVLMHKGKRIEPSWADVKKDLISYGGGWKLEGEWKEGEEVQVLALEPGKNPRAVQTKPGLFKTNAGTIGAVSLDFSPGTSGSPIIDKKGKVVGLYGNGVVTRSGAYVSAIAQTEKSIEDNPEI
Method in brief: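 DENV protease (100 nM) was pre-incubated 15 min with inhibitors in 50 mM Tris-HCl pH 9.0, 10% ethylene glycol, 0.0016% Brij 58. FRET substrate (50 μM final) started the reaction, monitored 15 min as RFU/s slope. IC50 came from triplicate means versus concentration.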

[10] = system: ZIKV

Compound | IC50 [3] [µM] | inhibition at 5 µM ([4]; at 5 μM) [%] | inhibition at 50 µM [5] [%] | inhibition at 5 µM ([6]; at 5 μM) [%] | inhibition at 25 µM ([6]; at 25 μM) [%] | IC50 [7] [µM] | inhibition at 1 µM ([7]; at 1 μM) [%] | inhibition at 50 µM ([7]; at 50 μM) [%] | EC50 [8] [µM] | inhibition at 50 µM [9] [%] | EC50 [10] [µM] | inhibition at 1 µM ([9]; at 1 μM) [%] | further results
NC(=O)c1ncn([C@@H]2O[C@H](CO)[C@@H](O)[C@H]2O)n1 [Ribavirin, ribavirin, reference compound] |  |  |  |  |  |  |  |  |  |  |  |  | Mean + SD Log10PFU/ml Plasma ([1]; Day 2): 3.34 ± 0.29 Log10PFU/ml; Mean + SD Log10PFU/ml Plasma ([1]; Day 5): 3.50 ± 0.13 Log10PFU/ml; Body weights of mice at the end of the study (Mean ± SD) [2]: 20.11 ± 1.05 g
CCCCCCCCCCCCCCCC(=O)N[C@H](CCCNC(=N)N)C(=O)N[C@@H](CCC(N)=O)C(=O)N[C@@H](Cc1ccccc1)C(N)=O [compound 44] (Palmitoyl-[dR]-Gln-Phe-NH2) | ≤ 40 | < 5 | ≥ 25 | < 10 | < 20 | ≤ 25 | ≥ 10 | ≥ 65 | ≤ 25 | ≥ 25 | ≤ 10 |  | 
CCCCCCCCCCCCCCCC(=O)N[C@@H](CCCNC(=N)N)C(=O)N[C@@H](CCC(N)=O)C(=O)N[C@H](Cc1ccccc1)C(N)=O [compound 49] (Palmitoyl-Arg-Gln-[dF]-NH2) |  |  |  |  |  | ≤ 25 | ≥ 10 | ≥ 65 |  | ≥ 25 | ≤ 10 | ≥ 20 | 
CCCCCCCCCCCCCCCC(=O)N[C@@H](CCCNC(=N)N)C(=O)N[C@@H](CC(N)=O)C(=O)N[C@@H](Cc1ccccc1)C(N)=O [compound 50] (Palmitoyl-Arg-Asn-Phe-NH2) |  |  |  |  |  | ≤ 25 | ≥ 10 | ≥ 65 | ≤ 25 | ≥ 25 | ≤ 10 | ≥ 20 | 
CCCCCCCCCCCCCCCC(=O)N[C@@H](CCCNC(=N)N)C(=O)N[C@@H](C)C(=O)N[C@@H](CCc1ccccc1)C(N)=O [compound 51] (Palmitoyl-Arg-Ala-[hPhe]-NH2) |  |  |  |  |  | ≤ 25 | ≥ 10 | ≥ 65 | ≤ 25 | ≥ 25 | ≤ 10 | ≥ 20 | 
CCCCCCCCCCCCCCCC(=O)N[C@@H](CCCNC(=N)N)C(=O)N[C@@H](CCC(N)=O)C(=O)N[C@@H](CCc1ccccc1)C(N)=O [compound 53] (Palmitoyl-Arg-Gln-[hPhe]-NH2) |  |  |  |  |  | ≤ 25 |  | ≥ 65 | ≤ 25 | ≥ 25 | ≤ 10 |  | 
CCCCCCCCCCCCCCCC(=O)N[C@@H](C)C(=O)N[C@@H](CCCNC(=N)N)C(=O)N[C@@H](CCC(N)=O)C(=O)N[C@@H](Cc1ccccc1)C(N)=O [compound 54] (Palmitoyl-ARQF-NH2) |  |  |  |  |  | ≤ 25 | ≥ 10 | ≥ 65 | ≤ 25 | ≥ 25 | ≤ 10 |  | 
CCCCCCCCCCCCCCCC(=O)N[C@@H](CCCCN)CC(=O)N[C@@H](C)C(=O)N[C@H](C)C(=O)N[C@@H](CCCCN)C(N)=O [compound 114] (Palmitoyl-[β3hK]A[dA]K-NH2) | ≤ 40 |  |  | < 10 | < 20 | ≤ 25 | ≥ 10 | ≥ 65 | ≤ 25 | ≥ 25 | ≤ 10 | ≥ 20 | 
CCCCCCCCCCCCCCCC(=O)N[C@@H](CCCCN)CN1CCC[C@H]1C(=O)N[C@@H](C)C(=O)N[C@H](CCc1ccccc1)C(N)=O [compound 118] | ≤ 40 | < 5 | ≥ 25 | < 10 | < 20 | ≤ 25 | ≥ 10 | ≥ 65 | ≤ 25 | ≥ 25 | ≤ 10 |  | 
CCCCCCCCCCCCCCCC(=O)N[C@@H](CCCCN)C(=O)N[C@@H](C)C(=O)N[C@@H](C)C(=O)N[C@H](CCCCN)C(=O)c1ccccc1 [compound 136] | ≤ 40 |  | ≥ 25 |  |  | ≤ 25 |  |  | ≤ 25 | ≥ 25 |  |  | inhibition at 5 µM [4]: < 5%; inhibition at 5 µM [6]: < 10%; inhibition at 25 µM [6]: < 20%; inhibition at 1 µM [7]: ≥ 10%; inhibition at 50 µM [7]: ≥ 65%; inhibition at 1 µM [9]: ≥ 20%
CCCCCCCCCCCCCCCC(=O)N[C@@H](CCCCC(=N)N)C(=O)N[C@@H](Cc1c[nH]cn1)C(N)=O [compound 170] | ≤ 40 | < 5 | ≥ 25 | < 10 | < 20 | ≤ 25 |  | ≥ 65 | ≤ 25 | ≥ 25 | ≤ 10 |  | 
CCCCCCCCCCCCCCCC(=O)N[C@@H](CCCCN)C(=O)N[C@@H](C)C(=O)N[C@@H](C)C(=O)N[C@@H](CCCCN)C(=O)O [compound 189] (Palmitoyl-KAAK-OH) | ≤ 40 | < 5 |  | < 10 | < 20 | ≤ 25 | ≥ 10 | ≥ 65 | ≤ 25 | ≥ 25 | ≤ 10 |  | 
CCCCCCCCCCCCCCCC(=O)N[C@H](CCCCN)C(=O)N1CCC[C@H]1C(=O)N[C@@H](C)C(=O)N[C@@H](Cc1c[nH]c2ccccc12)C(N)=O [compound 196] (Palmitoyl-[dK]PAW-NH2) | ≤ 40 | < 5 | ≥ 25 | < 10 | < 20 | ≤ 25 |  | ≥ 65 | ≤ 25 | ≥ 25 | ≤ 10 |  | 
